According to BindingDB's records for doi:10.7270/Q2JQ0ZH4 (Burnham Center For Chemical Genomics, 2011):

target: T1, Mitochondrial import inner membrane translocase subunit TIM10 (Saccharomyces cerevisiae (strain ATCC 204508 / S288c), UniProt P87108); test: inhibitors in tim10-1 mutant yeast luminescence, dose response, counter-screen for tim23-1 inhibitor project, S. cerevisiae, uHTS hits (AID 504657)
T1 sequence (P87108 whole entry): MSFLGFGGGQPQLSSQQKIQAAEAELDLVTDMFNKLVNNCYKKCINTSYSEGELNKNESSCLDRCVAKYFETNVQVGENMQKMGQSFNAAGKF

SMILES	IC50 [µM]
O=C1c2ccccc2-c2n[nH]c3cccc1c23	> 100
Cc1ccc2nc(-n3c(O)c[nH]c3=S)sc2c1	> 100
COC(=N)C(C#N)N=Cc1ccccc1Cl (stereo not given) [(E)-3-amino-2-[(2-chlorophenyl)methylideneamino]-3-methoxy-2-propenenitrile]	> 100

Results, then the compound that gave them:

IC50 [µM]	SMILES
> 100	C(=CN=Nc1nc2ccccc2[nH]1)Cc1ccccc1 [MLS000390936]
> 100	Oc1ccccc1C1=NNC(c2ccccc2)S1 (stereo not given) [MLS001212798]
